Source: patent publication US20260232666A1, “COMPOSITIONS AND METHODS FOR INHIBITION OF RAS” (TheRas, Inc., priority 2023, published 2026)

Columns and labels:
[1] = target: T1, Avi-KRAS G12C (1-169) GppNHp/RAF1 RBD-3×FLAG (52-151) (Homo sapiens, UniProt P01116, G12C); assay: Raf1 RBD-KRAS G12C-GppNHp disruption assay (protein:protein interaction HTRF); format: biochemical
T1 construct: Avi-KRAS G12C (1-169) GppNHp; Avi (N)
Method: Biological Example 2: Disrupting KRAS G12C-Effector Binding (Protein: Protein Interaction HTRF Assay)
A protein: protein interaction (PPI) Homogeneous Time Resolved Fluorescence (HTRF) assay was used to determine the effectiveness of compounds of the present disclosure in disrupting KRAS G12C protein and effector (RAF1 Ras Binding Domain (RBD)) binding.
The HTRF assay used the following reagents and proteins: 50 nM Avi-KRAS G12C (1-169) GppNHp/RAF1 RBD-3×FLAG (52-151); 35 nM Avi-PI3K RBD-3×FLAG; Assay Buffer: 50 mM Tris pH 7.5, 100 mM NaCl, 5 mM MgCl2, 0.1% BSA, 0.01% Tween 20, 10% DMSO; Bead Buffer: 50 mM Tris pH 7.5, 0.01% Tween 20; Assay volume: 20 μL (384 well plate-low volume format); and Compound titration: 30-0.02 μM, 3× dilution series.
The HTRF assay employed the following protocol:
Compounds were dispensed in assay plate (384-well, Grenier Bio-One #784075) using Echo (model 555) with dose response settings: 200 nL final volume, titration from 100 μM as a 10-point dilution series. KRAS proteins were prepared in assay buffer, and dispensed on plates, 5 μL per well, then incubated for 1 h at room temperature, with 700 rpm shaking. RAF1 RBD were prepared in assay buffer, dispensed onto plates, 5 μL per well, and then incubated for 1 h at room temperature, with 700 rpm shaking. Reagent mix was then prepared and dispensed on plates, 10 μL per well, and then incubated for 1 h at room temperature, with 700 rpm shaking.
Plates were analyzed on an Envision plate reader using the following setting: Excitation 320 nm, Bandwidth 75 nm; Emission 615 nm, Bandwidth 85 nm; Gain 100%; Flashes 100; Lag 60 μs. Data was reported as percentage of activity, with DMSO as 100%. Data was plotted and analyzed using Prism 8.
The percent of modification of GppNHp, GTP, or GDP loaded KRAS G12C by MALDI-TOF MS, biochemical Raf1 RBD-KRAS G12C-GppNHp disruption assay IC50, and pERK inhibition IC50 of selected compounds described herein are shown in Table 4. For percent of modification at 15 minutes (MALDI-TOF MS) of GppNHp, GTP, or GDP loaded KRAS G12C: A: percent of modification ≥70%; B: 50≤percent of modification <70%; C: 10%≤percent of modification <50%; D: percent of modification <10%. […] For pERK inhibition in H358 cell assay: A: IC50≤0.1 μM; B: 0.1 μM<IC50≤1 μM; C: IC50>1 μM. Blanks in the table represent that compound was not tested in the indicated assay.

pERK in NCI-H358 cells = assay: Cell-based pERK HTRF assay (pERK inhibition in H358 cells); conditions: 30 min incubation
Outline: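 NCI-H358 cells were seeded at 4×10^4 cells/well in RPMI/10% FBS, then treated next day for 30 min at 0.25% DMSO (9-point, 3-fold series from 75 μM). Lysates were read by HTRF (d2/Eu cryptate antibody pair, 615 nm emission) after 4–24 h at room temperature to give pERK IC50.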

[2] = target: T2, GTP-loaded KRAS4b (amino acids 1-169) G12C/C118S protein (Homo sapiens, UniProt P01116, C118S/G12C); assay: Covalent cysteine 12 modification by MALDI-TOF MS, GTP-loaded KRAS G12C; format: binding; conditions: 15 minutes reaction time point
T2 construct: KRAS4b (amino acids 1-169) G12C/C118S protein; made in house
Outline: (§1)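 Covalent labelling is scored at 15 min by MALDI-TOF mass spectrometry, using 1 μM protein with compound at a 1:2.5 protein-to-compound ratio at room temperature.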

[3] = target: T3, GDP-loaded KRAS4b (amino acids 1-169) G12C/C118S protein (Homo sapiens, UniProt P01116, C118S/G12C); assay: Covalent cysteine 12 modification by MALDI-TOF MS, GDP-loaded KRAS G12C; format: binding; conditions: 15 minutes reaction time point
T3 construct: KRAS4b (amino acids 1-169) G12C/C118S protein; made in house
Outline: as §1

[4] = target: T4, GppNHp-loaded KRAS4b (amino acids 1-169) G12C/C118S protein (Homo sapiens, UniProt P01116, C118S/G12C); assay: Covalent cysteine 12 modification by MALDI-TOF MS, GppNHp-loaded KRAS G12C; format: binding; conditions: 15 minutes reaction time point
T4 construct: KRAS4b (amino acids 1-169) G12C/C118S protein; made in house
Outline: as §1

Row | Compound | IC50 [1] | IC50 (pERK in NCI-H358 cells) | IC50 (pERK in NCI-H358 cells; Homo sapiens, NCI-H358, 0.5 h) | GTP-KRAS G12C percent of modification [2] | GDP-KRAS G12C percent of modification [3] | GppNHp-KRAS G12C percent of modification [4]
1 | C=CC(=O)N1CC[C@@H](N(C)c2nc(OC[C@@]34CCCN3C[C@H](F)C4)nc3cc(-c4ccc(F)c5sc(N)c(C#N)c45)c(F)cc23)[C@H]1C [Compound 15] | < 500 nM |  |  |  |  | 
2 | C=CC(=O)N1CC[C@@H](N(C)c2nc(OC[C@@]34CCCN3C[C@H](F)C4)nc3c(F)c(-c4ccc(F)c5sc(N)c(C#N)c45)c(C(F)(F)F)cc23)[C@@H]1C (atropisomer, axis not shown) [Compound 71] | 500 to 5000 nM | 100 to 1000 nM |  |  |  | 
3 | C=CC(=O)N1CC[C@@H](N(C)c2nc(OC[C@@]34CCCN3C[C@H](F)C4)nc3cc(-c4ccc(F)c5sc(N)c(C#N)c45)c(C#N)cc23)[C@H]1C [Compound 16] | < 500 nM |  | < 100 nM |  |  | 
4 | C=CC(=O)N1CC[C@@H](N(C)c2nc(OC[C@@]34CCCN3C[C@H](F)C4)nc3c(F)c(-c4ccc(F)c5sc(N)c(C#N)c45)c(C(F)(F)F)cc23)[C@H]1C [Compound 6] | < 500 nM |  |  | C (10%≤percent of modification <50%) | B (50≤percent of modification <70%) | 
5 | C=CC(=O)N1CC[C@@H](N(C)c2nc(OC[C@@]34CCCN3C[C@H](F)C4)nc3c(F)c(-c4ccc(F)c5sc(N)c(C#N)c45)ccc23)[C@@H]1C [Compound 43] | < 500 nM |  | < 100 nM |  |  | A (percent of modification ≥70%)
6 | C=CC(=O)N1CC[C@H](N(C)c2nc(OC[C@@]34CCCN3C[C@H](F)C4)nc3c(F)c(-c4ccc(F)c5sc(N)c(C#N)c45)c(C(F)(F)F)cc23)[C@@H]1C [Compound 5] | < 500 nM |  |  |  | A (percent of modification ≥70%) | 
7 | C=CC(=O)N1CC[C@@H](N(C)c2nc(OC[C@@H]3CCCN3C)nc3c(F)c(-c4ccc(F)c5sc(N)c(C#N)c45)c(C(F)(F)F)cc23)[C@@H]1C [Compound 38] | < 500 nM |  | < 100 nM |  |  | A (percent of modification ≥70%)
8 | C=CC(=O)N1CC[C@@H](N(C)c2nc(OC[C@@H]3CCCN3CC)nc3c(F)c(-c4ccc(F)c5sc(N)c(C#N)c45)c(Cl)cc23)[C@H]1C [Compound 89] | < 500 nM |  | < 100 nM |  | A (percent of modification ≥70%) | 

The next lines start with the values.

Row | IC50 [1] | IC50 (pERK in NCI-H358 cells) | IC50 (pERK in NCI-H358 cells; Homo sapiens, NCI-H358, 0.5 h) | GTP-KRAS G12C percent of modification [2] | GDP-KRAS G12C percent of modification [3] | GppNHp-KRAS G12C percent of modification [4] | Compound
9 | < 500 nM |  | < 100 nM |  |  |  | [2H]C1([2H])CN2C[C@H](F)C[C@]2(COc2nc(N(CC)[C@@H]3CCN(C(=O)C=C)[C@@H]3C)c3cc(F)c(-c4ccc(F)c5sc(N)c(C#N)c45)cc3n2)C1 [Compound 123]
10 | < 500 nM |  | < 100 nM | A (percent of modification ≥70%) |  |  | C=CC(=O)N1CC[C@@H](N(C)c2nc(OC[C@@]34CCCN3C[C@H](OC)C4)nc3c(F)c(-c4ccc(F)c5sc(N)c(C#N)c45)c(Cl)cc23)[C@H]1C [Compound 160]
11 | < 500 nM |  | < 100 nM |  |  | A (percent of modification ≥70%) | [2H]C1([2H])CN2C[C@H](F)C[C@]2(COc2nc(N(C)[C@@H]3CCN(C(=O)C=C)[C@@H]3C)c3cc(C(F)(F)F)c(-c4ccc(F)c5sc(N)c(C#N)c45)c(F)c3n2)C1 [Compound 128, 4-(4-(((2R,3R)-1-acryloyl-2-methylpyrrolidin-3-yl)(methyl)amino)-8-fluoro-2-(((2R,7aS)-2-fluorotetrahydro-1H-pyrrolizin-7a(5H)-yl-6,6-d2)methoxy)-6-(trifluoromethyl)quinazolin-7-yl)-2-amino-7-fluorobenzo[b]thiophene-3-carbonitrile]
12 | < 500 nM |  | < 100 nM |  |  | A (percent of modification ≥70%) | C=CC(=O)N1CC[C@@H](N(CC)c2nc(OC[C@]34CCCN3C[C@H](F)C4)nc3c(F)c(-c4ccc(F)c5sc(N)c(C#N)c45)ccc23)[C@H]1C [Compound 170]
13 | < 500 nM |  | < 100 nM |  |  | A (percent of modification ≥70%) | C=CC(=O)N1CC[C@@H](N(C)c2nc(OC[C@]34CCCN3C[C@H](F)C4)nc3c(F)c(-c4ccc(F)c5sc(N)c(C#N)c45)c(Cl)cc23)[C@H]1C [Compound 162]
14 | < 500 nM |  | < 100 nM |  |  |  | [2H]C1([2H])CCC2(C([2H])([2H])Oc3nc(N4CC(C)N(C(=O)C=C)CC4C)c4cc(C(F)(F)F)c(-c5ccc(F)c6sc(N)c(C#N)c56)c(F)c4n3)CC(F)CN12 (centres unmarked) [Compound 96]
15 | < 500 nM |  |  |  |  | A (percent of modification ≥70%) | [2H]C1([2H])CN2C[C@H](F)C[C@]2(COc2nc(N3C[C@@H](C)N(C(=O)C=C)C[C@@H]3C)c3cc(C(F)(F)F)c(-c4ccc(F)c5sc(N)c(C#N)c45)c(F)c3n2)C1 [Compound 125]
16 | < 500 nM |  | < 100 nM |  |  |  | C=CC(=O)N1CC[C@@H](N(C)c2nc(OC[C@]34CCCN3C[C@H](F)C4)nc3c(F)c(-c4ccc(F)c5sc(N)c(C#N)c45)c(C(F)(F)F)cc23)[C@H]1C [Compound 157]
17 |  |  | < 100 nM | A (percent of modification ≥70%) | A (percent of modification ≥70%) | A (percent of modification ≥70%) | C=CC(=O)N1CC[C@@H](N(C)c2nc(O[C@@H](C)[C@@H]3C[C@@H](OC)CN3C)nc3c(F)c(-c4ccc(F)c5sc(N)c(C#N)c45)c(Cl)cc23)[C@H]1C [Compound 194]
18 |  | < 100 nM |  | A (percent of modification ≥70%) | A (percent of modification ≥70%) | A (percent of modification ≥70%) | C[C@@H]1[C@H](N(C)c2nc(OC[C@@]34CCCN3C[C@H](F)C4)nc3c(F)c(-c4ccc(F)c5sc(N)c(C#N)c45)c(C(F)(F)F)cc23)CCN1C(=O)[C@@H](F)Cl (atropisomer, axis not shown) [Compound 185]
